From the supplement of paper PMC4862054

tested on: HDQ-P1; test: normalised viability (% of control), CellTiter-Blue; higher = more viable cells (100 = DMSO, 0 = benzethonium chloride kill control); conditions: incubation time: 72 h
Summary of the method: (§1)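 Normalised viability is given for a single listed concentration of the series. In 384-well plates, breast cancer cell lines were incubated 72 h with compound, then read with CellTiter-Blue (2 h, 37 °C) at 560/590 nm. Per-plate scaling set vehicle to 100 and a positive kill control to 0, with Z'-factor quality control.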

SMILES	normalised viability
Cc1ccc(C(=O)N(CCCN)[C@@H](c2oc3cc(Cl)ccc3c(=O)c2Cc2ccccc2)C(C)C)cc1 (0.1 nM)	126%
Clc1ccc(Nc2nnc(Cc3ccncc3)c3ccccc23)cc1 [Vatalanib] (1 nM)	91%
COc1cc([C@@H]2c3cc4c(cc3[C@@H](O[C@@H]3O[C@@H]5CO[C@@H](C)O[C@H]5[C@H](O)[C@H]3O)[C@H]3COC(=O)[C@H]23)OCO4)cc(OC)c1O [Etoposide] (1 nM)	96.3%
CC1(C)NC(=O)N(c2ccc([N+](=O)[O-])c(C(F)(F)F)c2)C1=O [Nilutamide] (1 nM)	125%
CO[C@H]1/C=C\C=C(/C)C(=O)NC2=CC(=O)C(NCCN(C)C)=C(C[C@@H](C)C[C@H](OC)[C@H](O)[C@@H](C)/C=C(\C)[C@@H]1OC(N)=O)C2=O [Alvespimycin] (0.1 nM)	105%
O=C1CCC(N2C(=O)c3ccccc3C2=O)C(=O)N1 (centres undefined) [Thalidomide] (1 nM)	110%
Cc1ccc(-n2nc(C(C)(C)C)cc2NC(=O)Nc2ccc(OCCN3CCOCC3)c3ccccc23)cc1 [Doramapimod] (1 nM)	64.3%
O=P1(NCCCl)OCCCN1CCCl (centres undefined) [Ifosfamide] (1 nM)	119%

tested on: SK-BR-3; test: as above; conditions: incubation time: 72 h
Summary of the method: as §1

SMILES	normalised viability
Cc1ccc(C(=O)N(CCCN)[C@@H](c2oc3cc(Cl)ccc3c(=O)c2Cc2ccccc2)C(C)C)cc1 (0.1 nM)	105%
Clc1ccc(Nc2nnc(Cc3ccncc3)c3ccccc23)cc1 [Vatalanib] (1 nM)	93.2%
COc1cc([C@@H]2c3cc4c(cc3[C@@H](O[C@@H]3O[C@@H]5CO[C@@H](C)O[C@H]5[C@H](O)[C@H]3O)[C@H]3COC(=O)[C@H]23)OCO4)cc(OC)c1O [Etoposide] (1 nM)	97.5%
CC1(C)NC(=O)N(c2ccc([N+](=O)[O-])c(C(F)(F)F)c2)C1=O [Nilutamide] (1 nM)	99.1%
CO[C@H]1/C=C\C=C(/C)C(=O)NC2=CC(=O)C(NCCN(C)C)=C(C[C@@H](C)C[C@H](OC)[C@H](O)[C@@H](C)/C=C(\C)[C@@H]1OC(N)=O)C2=O [Alvespimycin] (0.1 nM)	104%
O=C1CCC(N2C(=O)c3ccccc3C2=O)C(=O)N1 (centres undefined) [Thalidomide] (1 nM)	102%
Cc1ccc(-n2nc(C(C)(C)C)cc2NC(=O)Nc2ccc(OCCN3CCOCC3)c3ccccc23)cc1 [Doramapimod] (1 nM)	108%
O=P1(NCCCl)OCCCN1CCCl (centres undefined) [Ifosfamide] (1 nM)	98.3%

tested on: MFM-223; test: as above; conditions: incubation time: 72 h
Summary of the method: as §1

SMILES	normalised viability
Cc1ccc(C(=O)N(CCCN)[C@@H](c2oc3cc(Cl)ccc3c(=O)c2Cc2ccccc2)C(C)C)cc1 (0.1 nM)	105%
Clc1ccc(Nc2nnc(Cc3ccncc3)c3ccccc23)cc1 [Vatalanib] (1 nM)	106%
COc1cc([C@@H]2c3cc4c(cc3[C@@H](O[C@@H]3O[C@@H]5CO[C@@H](C)O[C@H]5[C@H](O)[C@H]3O)[C@H]3COC(=O)[C@H]23)OCO4)cc(OC)c1O [Etoposide] (1 nM)	100%
CC1(C)NC(=O)N(c2ccc([N+](=O)[O-])c(C(F)(F)F)c2)C1=O [Nilutamide] (1 nM)	100%
CO[C@H]1/C=C\C=C(/C)C(=O)NC2=CC(=O)C(NCCN(C)C)=C(C[C@@H](C)C[C@H](OC)[C@H](O)[C@@H](C)/C=C(\C)[C@@H]1OC(N)=O)C2=O [Alvespimycin] (0.1 nM)	99.9%
O=C1CCC(N2C(=O)c3ccccc3C2=O)C(=O)N1 (centres undefined) [Thalidomide] (1 nM)	96.1%
Cc1ccc(-n2nc(C(C)(C)C)cc2NC(=O)Nc2ccc(OCCN3CCOCC3)c3ccccc23)cc1 [Doramapimod] (1 nM)	98.8%
O=P1(NCCCl)OCCCN1CCCl (centres undefined) [Ifosfamide] (1 nM)	93.8%

tested on: HCC1599; test: as above; conditions: incubation time: 72 h
Summary of the method: as §1

SMILES	normalised viability
Cc1ccc(C(=O)N(CCCN)[C@@H](c2oc3cc(Cl)ccc3c(=O)c2Cc2ccccc2)C(C)C)cc1 (0.1 nM)	108%
Clc1ccc(Nc2nnc(Cc3ccncc3)c3ccccc23)cc1 [Vatalanib] (1 nM)	95.2%
COc1cc([C@@H]2c3cc4c(cc3[C@@H](O[C@@H]3O[C@@H]5CO[C@@H](C)O[C@H]5[C@H](O)[C@H]3O)[C@H]3COC(=O)[C@H]23)OCO4)cc(OC)c1O [Etoposide] (1 nM)	121%
CC1(C)NC(=O)N(c2ccc([N+](=O)[O-])c(C(F)(F)F)c2)C1=O [Nilutamide] (1 nM)	85.1%
CO[C@H]1/C=C\C=C(/C)C(=O)NC2=CC(=O)C(NCCN(C)C)=C(C[C@@H](C)C[C@H](OC)[C@H](O)[C@@H](C)/C=C(\C)[C@@H]1OC(N)=O)C2=O [Alvespimycin] (0.1 nM)	76%
O=C1CCC(N2C(=O)c3ccccc3C2=O)C(=O)N1 (centres undefined) [Thalidomide] (1 nM)	104%
Cc1ccc(-n2nc(C(C)(C)C)cc2NC(=O)Nc2ccc(OCCN3CCOCC3)c3ccccc23)cc1 [Doramapimod] (1 nM)	99.3%
O=P1(NCCCl)OCCCN1CCCl (centres undefined) [Ifosfamide] (1 nM)	109%

tested on: MDA-MB-468; test: as above; conditions: incubation time: 72 h
Summary of the method: as §1

SMILES	normalised viability
Cc1ccc(C(=O)N(CCCN)[C@@H](c2oc3cc(Cl)ccc3c(=O)c2Cc2ccccc2)C(C)C)cc1 (0.1 nM)	97.3%
Clc1ccc(Nc2nnc(Cc3ccncc3)c3ccccc23)cc1 [Vatalanib] (1 nM)	98.8%
COc1cc([C@@H]2c3cc4c(cc3[C@@H](O[C@@H]3O[C@@H]5CO[C@@H](C)O[C@H]5[C@H](O)[C@H]3O)[C@H]3COC(=O)[C@H]23)OCO4)cc(OC)c1O [Etoposide] (1 nM)	98%
CC1(C)NC(=O)N(c2ccc([N+](=O)[O-])c(C(F)(F)F)c2)C1=O [Nilutamide] (1 nM)	108%
CO[C@H]1/C=C\C=C(/C)C(=O)NC2=CC(=O)C(NCCN(C)C)=C(C[C@@H](C)C[C@H](OC)[C@H](O)[C@@H](C)/C=C(\C)[C@@H]1OC(N)=O)C2=O [Alvespimycin] (0.1 nM)	104%
O=C1CCC(N2C(=O)c3ccccc3C2=O)C(=O)N1 (centres undefined) [Thalidomide] (1 nM)	105%
Cc1ccc(-n2nc(C(C)(C)C)cc2NC(=O)Nc2ccc(OCCN3CCOCC3)c3ccccc23)cc1 [Doramapimod] (1 nM)	105%
O=P1(NCCCl)OCCCN1CCCl (centres undefined) [Ifosfamide] (1 nM)	124%

tested on: HCC1143; test: as above; conditions: incubation time: 72 h
Summary of the method: as §1

SMILES	normalised viability
Cc1ccc(C(=O)N(CCCN)[C@@H](c2oc3cc(Cl)ccc3c(=O)c2Cc2ccccc2)C(C)C)cc1 (0.1 nM)	101%
Clc1ccc(Nc2nnc(Cc3ccncc3)c3ccccc23)cc1 [Vatalanib] (1 nM)	89.5%
COc1cc([C@@H]2c3cc4c(cc3[C@@H](O[C@@H]3O[C@@H]5CO[C@@H](C)O[C@H]5[C@H](O)[C@H]3O)[C@H]3COC(=O)[C@H]23)OCO4)cc(OC)c1O [Etoposide] (1 nM)	107%
CC1(C)NC(=O)N(c2ccc([N+](=O)[O-])c(C(F)(F)F)c2)C1=O [Nilutamide] (1 nM)	99.5%
CO[C@H]1/C=C\C=C(/C)C(=O)NC2=CC(=O)C(NCCN(C)C)=C(C[C@@H](C)C[C@H](OC)[C@H](O)[C@@H](C)/C=C(\C)[C@@H]1OC(N)=O)C2=O [Alvespimycin] (0.1 nM)	103%
O=C1CCC(N2C(=O)c3ccccc3C2=O)C(=O)N1 (centres undefined) [Thalidomide] (1 nM)	100%
Cc1ccc(-n2nc(C(C)(C)C)cc2NC(=O)Nc2ccc(OCCN3CCOCC3)c3ccccc23)cc1 [Doramapimod] (1 nM)	97.3%
O=P1(NCCCl)OCCCN1CCCl (centres undefined) [Ifosfamide] (1 nM)	88.9%

tested on: CAL-51; test: as above; conditions: incubation time: 72 h
Summary of the method: as §1

SMILES	normalised viability
Cc1ccc(C(=O)N(CCCN)[C@@H](c2oc3cc(Cl)ccc3c(=O)c2Cc2ccccc2)C(C)C)cc1 (0.1 nM)	103%
Clc1ccc(Nc2nnc(Cc3ccncc3)c3ccccc23)cc1 [Vatalanib] (1 nM)	99.4%
COc1cc([C@@H]2c3cc4c(cc3[C@@H](O[C@@H]3O[C@@H]5CO[C@@H](C)O[C@H]5[C@H](O)[C@H]3O)[C@H]3COC(=O)[C@H]23)OCO4)cc(OC)c1O [Etoposide] (1 nM)	87.8%
CC1(C)NC(=O)N(c2ccc([N+](=O)[O-])c(C(F)(F)F)c2)C1=O [Nilutamide] (1 nM)	100%
CO[C@H]1/C=C\C=C(/C)C(=O)NC2=CC(=O)C(NCCN(C)C)=C(C[C@@H](C)C[C@H](OC)[C@H](O)[C@@H](C)/C=C(\C)[C@@H]1OC(N)=O)C2=O [Alvespimycin] (0.1 nM)	92.8%
O=C1CCC(N2C(=O)c3ccccc3C2=O)C(=O)N1 (centres undefined) [Thalidomide] (1 nM)	86.2%
Cc1ccc(-n2nc(C(C)(C)C)cc2NC(=O)Nc2ccc(OCCN3CCOCC3)c3ccccc23)cc1 [Doramapimod] (1 nM)	112%
O=P1(NCCCl)OCCCN1CCCl (centres undefined) [Ifosfamide] (1 nM)	110%

tested on: BT-549; test: as above; conditions: incubation time: 72 h
Summary of the method: as §1

SMILES	normalised viability
Cc1ccc(C(=O)N(CCCN)[C@@H](c2oc3cc(Cl)ccc3c(=O)c2Cc2ccccc2)C(C)C)cc1 (0.1 nM)	100%
Clc1ccc(Nc2nnc(Cc3ccncc3)c3ccccc23)cc1 [Vatalanib] (1 nM)	100%
COc1cc([C@@H]2c3cc4c(cc3[C@@H](O[C@@H]3O[C@@H]5CO[C@@H](C)O[C@H]5[C@H](O)[C@H]3O)[C@H]3COC(=O)[C@H]23)OCO4)cc(OC)c1O [Etoposide] (1 nM)	96.9%
CC1(C)NC(=O)N(c2ccc([N+](=O)[O-])c(C(F)(F)F)c2)C1=O [Nilutamide] (1 nM)	95.1%
CO[C@H]1/C=C\C=C(/C)C(=O)NC2=CC(=O)C(NCCN(C)C)=C(C[C@@H](C)C[C@H](OC)[C@H](O)[C@@H](C)/C=C(\C)[C@@H]1OC(N)=O)C2=O [Alvespimycin] (0.1 nM)	91.9%
O=C1CCC(N2C(=O)c3ccccc3C2=O)C(=O)N1 (centres undefined) [Thalidomide] (1 nM)	95.2%
Cc1ccc(-n2nc(C(C)(C)C)cc2NC(=O)Nc2ccc(OCCN3CCOCC3)c3ccccc23)cc1 [Doramapimod] (1 nM)	99.7%
O=P1(NCCCl)OCCCN1CCCl (centres undefined) [Ifosfamide] (1 nM)	122%

tested on: DU-4475; test: as above; conditions: incubation time: 72 h
Summary of the method: as §1

SMILES	normalised viability
Cc1ccc(C(=O)N(CCCN)[C@@H](c2oc3cc(Cl)ccc3c(=O)c2Cc2ccccc2)C(C)C)cc1 (0.1 nM)	95.9%
Clc1ccc(Nc2nnc(Cc3ccncc3)c3ccccc23)cc1 [Vatalanib] (1 nM)	97.9%
COc1cc([C@@H]2c3cc4c(cc3[C@@H](O[C@@H]3O[C@@H]5CO[C@@H](C)O[C@H]5[C@H](O)[C@H]3O)[C@H]3COC(=O)[C@H]23)OCO4)cc(OC)c1O [Etoposide] (1 nM)	112%
CC1(C)NC(=O)N(c2ccc([N+](=O)[O-])c(C(F)(F)F)c2)C1=O [Nilutamide] (1 nM)	115%
CO[C@H]1/C=C\C=C(/C)C(=O)NC2=CC(=O)C(NCCN(C)C)=C(C[C@@H](C)C[C@H](OC)[C@H](O)[C@@H](C)/C=C(\C)[C@@H]1OC(N)=O)C2=O [Alvespimycin] (0.1 nM)	108%
O=C1CCC(N2C(=O)c3ccccc3C2=O)C(=O)N1 (centres undefined) [Thalidomide] (1 nM)	101%
Cc1ccc(-n2nc(C(C)(C)C)cc2NC(=O)Nc2ccc(OCCN3CCOCC3)c3ccccc23)cc1 [Doramapimod] (1 nM)	105%
O=P1(NCCCl)OCCCN1CCCl (centres undefined) [Ifosfamide] (1 nM)	116%

tested on: CAL-120; test: as above; conditions: incubation time: 72 h
Summary of the method: as §1

SMILES	normalised viability
Cc1ccc(C(=O)N(CCCN)[C@@H](c2oc3cc(Cl)ccc3c(=O)c2Cc2ccccc2)C(C)C)cc1 (0.1 nM)	90.3%
Clc1ccc(Nc2nnc(Cc3ccncc3)c3ccccc23)cc1 [Vatalanib] (1 nM)	84.3%
